According to US6696454B2, “Inhibitors of spermidine synthase for the treatment of osteoarthritis and cartilage rehabilitation” (Quark Biotech, Inc., priority 2000, dated 2004):

Assays:
spermidine synthase [1] = conditions: cited from earlier work
spermidine synthase [2] = molecular target: T1, spermidine synthase (Homo sapiens, UniProt P19623); conditions: variety of mammalian cells exposed to racemic AdoDATO; cited from earlier work
T1 construct: host or cells: a variety of mammalian cells (endogenous enzyme)
T1 sequence (P19623 1-302): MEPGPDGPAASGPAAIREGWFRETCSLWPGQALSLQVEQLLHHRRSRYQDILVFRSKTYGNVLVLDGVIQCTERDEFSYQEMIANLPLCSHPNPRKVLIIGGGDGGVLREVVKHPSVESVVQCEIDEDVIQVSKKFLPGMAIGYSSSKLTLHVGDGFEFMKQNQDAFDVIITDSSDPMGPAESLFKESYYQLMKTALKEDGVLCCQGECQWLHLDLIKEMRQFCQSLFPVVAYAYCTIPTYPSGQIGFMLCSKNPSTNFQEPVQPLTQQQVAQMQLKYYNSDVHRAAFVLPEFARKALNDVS

cell proliferation = conditions: cell culture; cited from earlier work
spermidine synthase [3] = conditions: neonatal rats, cited from earlier work
[4] = test system: mouse alveolar macrophages; conditions: cited from earlier work; for fusion of macrophages: 1α,25(OH)2D3-induced; for enhanced synthesis of proteins induced by 1α,25(OH)2D3: 9 of the 14 induced proteins
[5] = test system: proteoglycan subunits bound to type II collagen; conditions: Sepharose 4B-collagen column loaded with proteoglycan subunits; cited from earlier work
alkaline phosphatase = molecular target: T2, alkaline phosphatase (Homo sapiens, UniProt P05186); conditions: cited from earlier work
T2 construct: alkaline phosphatase produced from cartilage
T2 sequence (P05186 18-501): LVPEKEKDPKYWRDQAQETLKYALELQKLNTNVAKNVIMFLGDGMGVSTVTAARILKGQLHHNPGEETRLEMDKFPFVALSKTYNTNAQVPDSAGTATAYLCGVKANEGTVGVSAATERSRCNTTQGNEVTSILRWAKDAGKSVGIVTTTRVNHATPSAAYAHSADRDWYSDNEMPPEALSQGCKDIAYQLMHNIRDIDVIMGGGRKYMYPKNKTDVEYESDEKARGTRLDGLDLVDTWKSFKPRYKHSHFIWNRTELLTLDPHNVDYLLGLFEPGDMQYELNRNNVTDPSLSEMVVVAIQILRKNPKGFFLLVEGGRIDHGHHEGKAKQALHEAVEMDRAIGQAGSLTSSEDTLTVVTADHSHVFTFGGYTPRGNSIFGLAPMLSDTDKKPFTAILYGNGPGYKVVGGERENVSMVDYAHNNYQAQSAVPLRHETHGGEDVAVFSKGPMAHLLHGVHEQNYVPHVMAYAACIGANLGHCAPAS

HMSC = assay: Differentiation marker expression in HMSC treated with cytokines/growth factors; format: cell-based, human
Method: 1.1. HMSC—Normal adult articular cartilage progenitor cells were obtained from human cartilage. The cartilage was dissected and cultured in fresh DMEM medium supplemented with 10% FCS, L-glutamine and antibiotics. Two weeks after the cultivation of dissected cartilage, the remaining pieces were removed and the attached cells were used.
(§1) A series of in vitro experiments using HMSC was conducted. The cells were exposed to a panel of treatments which cause either chondrogenic (e.g., IGF-1) or osteogenic and angiogenic (e.g., IL1 and FGF-2) responses. Two rounds of in vitro experiments were performed. Initially, a calibration experiment was carried out in order to determine the time/dose kinetics of the cellular response to the stimuli. Based on this study, a large-scale experiment was performed from which RNA was prepared and used in the course of the gene expression profiling experiments.
In order to validate the differentiation response of the HMSC to the various stimuli, cells exposed to different treatments (Table 1) were tested for the expression of markers specific for osteoblastic and chondroblastic lineages by immunohistochemistry and staining procedures. To optimize the response of HMSC to differentiation treatment, it was studied on cells grown at varying density (sparse and confluent).

spermidine synthase [6] = assay: Gene expression profiling of treated HMSC by cDNA microarray hybridization; format: cell-based, human; conditions: HMSC treated with FGF-2
Method: as §1
cDNA probes were synthesized from 1 μg of polyA RNA derived from every sample using reverse transcriptase (Superscript, Gibco-BRL) and 18-mer oligo-dT primer. Cy3-dCTP (Amersham) or Cy5-dCTP (Amersham) were incorporated during the RT reaction, to label the cDNA. Hybridization, subsequent scanning, and visualization were performed as previously described (Schena, M. et al. (1996) Proc Natl Acad Sci USA 93, 10614-10619). The quality control of hybridizations was performed according to applicant's methods.
Probe 2 in all hybridizations was an identical probe comprised of a pool of 0 time point RNA extractions (Table 4, Common control). This served as a common normalizing probe and allowed us to compare results from different hybridizations in formal statistical analysis. […]

[7] = oral administration for 10 days or 4 months
[8] = rats, prolonged exposure for 10 days

In the case of `C[C@H]1CC[C@H](N)CC1` [4MCHA, trans-4-methylcyclohexylamine], the “spermidine in rat tissue” value (spermidine synthase [1]; [7]) is listed as “specific and marked decrease”, the “spermine in rat tissue” value (spermidine synthase [1]; [7]) is listed as “compensatory increase” and the reduction in spermidine (spermidine synthase [1]; rats, prolonged exposure for 10 days, variety of tissues) is listed as 70-80%. The effect on growth (spermidine synthase [1]; [8]) was “no obvious effect”, the spermine (spermidine synthase [1]; [8]) was “compensatory increase” and the total polyamine content (spermidine synthase [1]; [8]) was “remained constant”.
For `NCCCCC[S+](CCN)CC1OC(n2cnc3c(N)ncnc32)C(O)C1O` (centres unmarked) [AdoDATO, S-adenosyl-1,8-diamino-3-thiooctane], the cellular spermidine content (spermidine synthase [2]) is given as “drastic decrease”, the putrescine content (spermidine synthase [2]) is given as “concomitant elevation” and the cell proliferation (cell proliferation) is given as “significant decrease”.
For `C1CCC(NC2CCCCC2)CC1` [DCHA], the “levels of all three polyamines on continued treatment” value (spermidine synthase [3]; continued DCHA treatment) is listed as “returned to normal within two weeks”, the brain spermidine (spermidine synthase [3]; daily administration) is listed as “dose-dependent depletion” and the putrescine and spermine (spermidine synthase [3]; daily administration) is listed as “rise”.
In the case of `CC(C=NNC(=N)N)=NNC(=N)N` [MGBG, methylglyoxal bis(guanylhydrazone), reference compound], the fusion of macrophages [4] is listed as “concomitant inhibition” and the “enhanced synthesis of proteins induced by 1α,25(OH)2D3” value [4] is listed as “greatly diminished”.
In the case of `NCCCCN` [putrescine, 1,4-diaminobutane], the “effect on displacing proteoglycan subunits from collagen column” value (“effect … from collagen column” for short) [5] is listed as “without effect”.
For `NCCCCNCCCN` [spermidine], the “effect … from collagen column” value [5] is given as “strong capacity”, the “proteoglycan subunits removed from the column” value [5] is given as “about 90%” and the “activity of alkaline phosphatase produced from cartilage” value (alkaline phosphatase) is given as “increased”. For the same molecule, the fusion of macrophages [4] was “restored” and the “enhanced synthesis of proteins induced by 1α,25(OH)2D3” value [4] was “restored”.
In the case of `NCCCNCCCCNCCCN` [spermine], the “effect … from collagen column” value [5] is listed as “without effect” and the “activity of alkaline phosphatase produced from cartilage” value (alkaline phosphatase) is listed as “increased”.
In the case of FGF-2: fibroblast growth factor, the FGFR3 expression (HMSC; confluent HMSC, 6 days) is reported as “increased”, the VEGF expression (HMSC; confluent HMSC, 6 days) is reported as “increased” and the “chondrocyte maturation and cartilage matrix production (Alcian Blue staining)” value (HMSC; confluent HMSC, 6 days) is reported as “decreased”. For the same molecule, the expression of osteocalcin (HMSC; confluent HMSC, 6 days) was “increased” and the “expression of spermidine synthase gene” value (spermidine synthase [6]) was “up-regulation”.
For “IGF-1: growth factor that is beneficial for normal cartilage function and rehabilitation”, the FGFR3 expression (HMSC; confluent HMSC, 6 days) was “decreased”, the “chondrocyte maturation and cartilage matrix production (Alcian Blue staining)” value (HMSC; confluent HMSC, 6 days) was “accelerates” and the “expression of collagen type II” value (HMSC; confluent HMSC, 6 days) was “increased”.
For “IL-1β: the inflammatory cytokine, known to be overproduced in OA joints”, the FGFR3 expression (HMSC; confluent HMSC, 6 days) was “increased”, the VEGF expression (HMSC; confluent HMSC, 6 days) was “increased” and the “chondrocyte maturation and cartilage matrix production (Alcian Blue staining)” value (HMSC; confluent HMSC, 6 days) was “decreased”. The expression of osteocalcin (HMSC; confluent HMSC, 6 days) was “increased” and the “cytotoxicity to HMSC” value (HMSC; high doses) was “cytotoxic”.
